Measured values as given in US8148112B2, “Sugar chain containing 4-position halogenated galactose and application thereof” (National University Corporation Hokkaido University, priority 2005, dated 2012).

What was measured:
[1] = molecular target: T1, rat-derived α2,3-N-sialyltransferase (Rattus norvegicus, UniProt Q02734); experiment: Kinetic analysis of α2,3-sialyltransfer reaction to 4MU-4F-LacNAc; format: biochemical; settings: for Activity: α2,3-sialyltransferase
T1 construct: purchased Calbiochem
T1 sequence (Q02734 1-374): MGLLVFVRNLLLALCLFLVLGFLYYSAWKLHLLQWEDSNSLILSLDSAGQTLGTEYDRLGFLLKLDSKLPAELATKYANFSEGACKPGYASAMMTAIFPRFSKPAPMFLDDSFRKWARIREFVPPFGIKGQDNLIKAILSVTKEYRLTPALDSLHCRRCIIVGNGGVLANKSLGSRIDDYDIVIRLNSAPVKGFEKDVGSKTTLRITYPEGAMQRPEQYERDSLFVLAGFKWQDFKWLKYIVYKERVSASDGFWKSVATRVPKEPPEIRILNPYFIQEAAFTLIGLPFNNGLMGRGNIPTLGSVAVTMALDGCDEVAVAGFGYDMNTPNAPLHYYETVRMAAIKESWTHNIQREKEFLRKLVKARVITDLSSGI
Description: (§1) The mixture was allowed to react at 25° C.
Precisely 60 minutes after initiation of the reaction, the reaction was terminated through addition of 80% acetonitrile (4 times in volume) and vigorous stirring. The reaction mixture was diluted, and the diluted product was analyzed through HPLC. […] Note that “1U” was defined as an enzyme amount which realizes sialylated sugar to form in an amount of 1 μmol/min under the above conditions.
The mixture was allowed to react at 25° C. for eight minutes.

[2] = molecular target: T2, rat-derived α2,6-N-sialyltransferase (Rattus norvegicus, UniProt P13721); experiment: Kinetic analysis of α2,6-sialyltransfer reaction to 4MU-4F-LacNAc; format: biochemical; settings: for Activity: α2,6-sialyltransferase
T2 construct: purchased Calbiochem
T2 sequence (P13721 1-403): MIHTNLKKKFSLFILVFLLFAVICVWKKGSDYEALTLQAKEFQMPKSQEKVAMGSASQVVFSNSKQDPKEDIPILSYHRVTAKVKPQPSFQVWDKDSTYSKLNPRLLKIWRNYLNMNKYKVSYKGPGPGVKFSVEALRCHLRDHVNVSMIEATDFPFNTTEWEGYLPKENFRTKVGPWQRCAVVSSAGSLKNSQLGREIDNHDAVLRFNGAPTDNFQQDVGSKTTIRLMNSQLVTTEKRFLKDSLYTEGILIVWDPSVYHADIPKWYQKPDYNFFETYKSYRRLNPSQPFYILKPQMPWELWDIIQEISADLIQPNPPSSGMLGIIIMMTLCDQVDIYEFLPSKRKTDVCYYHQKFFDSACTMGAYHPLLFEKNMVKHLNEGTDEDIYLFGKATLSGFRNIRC
Description: as §1
Precisely 120 minutes after initiation of the reaction, the reaction was terminated through addition of 1M NaOH (⅕ times in volume). The reaction mixture was neutralized and diluted with an HPLC eluent, and the diluted product was analyzed through HPLC. […] Note that “1U” was defined as an enzyme amount which realizes formation of sialylated sugar in an amount of 1 μmol/min under the above conditions.
The mixture was allowed to react at 25° C. for 10 minutes.
The enzymatic activity values at respective concentrations are compared.

[3] = molecular target: T2, rat-derived α2,6-N-sialyltransferase; experiment: Enzymatic α2,6-sialyltransfer reaction to pyridylaminated (PA) 4F-galactosylchitobiose, HPLC percent conversion; format: biochemical; settings: 10 μM acceptor, 100 μM CMP-NeuAc, 40 mU/mL enzyme, 25° C.; percent conversion compared with PA galactosylchitobiose
Description: (§2) To a 10 mM HEPES-NaOH buffer (pH 7.5) containing 10 mM manganese chloride, 100 mM sodium chloride, 100 μM CMP-NeuAc, 0.02% (w/v) BSA, and 10 μM pyridylaminated (PA) 4F-galactosylated chitobiose, rat-derived α2,6-N-sialyltransferase (product of Calbiochem) (40 mU/mL-reaction mixture) was added, and the mixture was allowed to react at 25° C. In a similar manner, a similar mixture employing pyridylaminated (PA) galactosylated chitobiose as an acceptor was allowed to react as a control reaction.
An aliquot was sampled from the reaction mixture at hour 1, hour 2.5, hour 8, and hour 24 after initiation of the reaction. Finally, the reaction was terminated through addition of a mixture of 0.5M triethylamine-acetic acid (pH 7.3) and acetonitrile (25:75) (19 times in volume) and vigorous stirring. The product was analyzed through HPLC. […] Mass analysis detected an [M+H]^+ peak (m/z 659.74) attributed to compound 19, thereby confirming formation of compound 19. Also, in the control reaction employing UDP-Gal, an [M+H]^+ peak (m/z 657.74) attributed to compound 20 was detected through MALDI-TOF-MS, confirming formation of compound 20. […]

[4] = molecular target: T1, rat-derived α2,3-N-sialyltransferase; experiment: Enzymatic α2,3-sialyltransfer reaction to pyridylaminated (PA) 4F-galactosylchitobiose, HPLC percent conversion; format: biochemical; settings: 10 μM acceptor, 100 μM CMP-NeuAc, 100 mU/mL enzyme, 25° C.; percent conversion compared with PA galactosylchitobiose
Description: as §2, with “α2,3-N-sialyltransferase” for “α2,6-N-sialyltransferase”, “(100” for “(40”
An aliquot was sampled from the reaction mixture at hour 2.5 and hour 24 after initiation of the reaction. Finally, the reaction was terminated through addition of 10 mM sodium phosphate (pH 4.3) (9 times in volume) and vigorous stirring. The product was analyzed through HPLC employing a C30-UG-5 column. […] A fraction corresponding to each peak was collected and dried under reduced pressure. […] Mass analysis detected, in the reaction employing pyridylaminated (PA) 4F-galactosylchitobiose, an [M+H]^+ peak (m/z 959.45), thereby confirming formation of compound 17. Also, in the reaction employing pyridylaminated (PA) galactosyl chitobiose, an [M+H]^+ peak (m/z 957.31) was detected, thereby confirming formation of compound 18. […]

[5] = substrate: CC(=O)NC1C(O)[C@H](O[C@@H]2OC(CO)[C@H](O)[C@H](O)C2O)[C@H](CO)O[C@H]1Oc1ccc2c(C)cc(=O)oc2c1; experiment: purified protein, by the assay type; settings: 25° C., pH 7.5
[6] = substrate: CC(=O)NC1C(O)[C@H](O[C@@H]2OC(CO)[C@H](F)[C@H](O)C2O)[C@H](CO)O[C@H]1Oc1ccc2c(C)cc(=O)oc2c1; experiment: purified protein, by the assay type; settings: other: 1/[S]-1/v plotting, 200 μM CMP-NeuAc, 25° C., pH 7.5
[7] = Galactokinase (GalK) activity of the enzyme liquid; format: biochemical, E. coli; settings: galactokinase activity of purified enzyme liquid, method by Takeda et al.
Description: E. coli (JM109 strain) (from Takara Bio) was transformed with a pTrc-galK plasmid (JP-A-2002-335988) in which a gene encoding E. coli-derived GalK has been inserted. The transformed cells were inoculated to a 2×YT medium (100 mL) containing 100 μg/mL ampicillin, followed by shake culturing at 37° C. When the number of the cells reached 1×10^8 cells/mL, isopropyl-p-thiogalactoside (IPTG) was added to the culture so as to adjust the final concentration to 0.2 mM, and shake culture was continued for further eight hours. After completion of culturing, cells were collected through centrifugation (9,000×g, 20 min) and suspended in a buffer (20 mM Tris-HCl (pH 7.5) and 1 mM magnesium chloride) (10 mL). The cells were disrupted through ultrasonication, and the product was centrifuged (20,000×g, 10 min), to thereby remove cell residues.
The thus-produced fraction was employed as an enzyme liquid in the following synthesis reactions. The galactokinase (GalK) activity of the enzyme liquid was determined (Table 1). In the present invention, GalK activity was determined through a method by Takeda et al. (JP-A-2002-335988).

[8] = other: rat-derived α2,6-sialyltransferase 40 mU/mL, 10 minutes, 1/[S]-1/v plotting
[9] = other: 1/[S]-1/v plotting, 200 μM CMP-NeuAc

CC(=O)NC1C(O)[C@H](O[C@@H]2OC(CO)[C@H](F)[C@H](O)C2O)[C@H](CO)O[C@H]1Oc1ccc2c(C)cc(=O)oc2c1 (some centres unmarked) [4MU-4F-LacNAc, 4-methylumbelliferyl 4F—N-acetyllactosamine]
catalytic efficiency of α2,3-sialyltransferase relative to that with respect to 4MU-LacNAc ([1]; compared with 4MU-LacNAc): ≤ 6% | Activity ([1]; acceptor concentration 20 μM): 0.9972 mU/mL | Activity ([1]; acceptor concentration 40 μM): 1.756 mU/mL | Activity ([1]; acceptor concentration 80 μM): 3.214 mU/mL | Activity ([1]; acceptor concentration 150 μM): 4.541 mU/mL | sialyltransferase activity of α2,6-sialyltransferase with respect to acceptor ([2]; compared with 4MU-LacNAc at respective concentrations): clearly decreased | Activity ([2]; acceptor concentration 20 μM): 0.07743 mU/mL | Activity ([2]; acceptor concentration 40 μM): 0.1561 mU/mL | Activity ([2]; acceptor concentration 80 μM): 0.3223 mU/mL | Activity ([2]; acceptor concentration 120 μM): 0.4596 mU/mL | Activity ([2]; acceptor concentration 150 μM): 0.6348 mU/mL

CC(=O)NC1C(O)[C@H](O[C@@H]2OC(CO)[C@H](O)[C@H](O)C2O)[C@H](CO)O[C@H]1Oc1ccc2c(C)cc(=O)oc2c1 (some centres unmarked) [4MU-LacNAc, reference compound]
Activity ([1]; acceptor concentration 20 μM): 16.20 mU/mL | Activity ([1]; acceptor concentration 40 μM): 28.50 mU/mL | Activity ([1]; acceptor concentration 80 μM): 45.36 mU/mL | Activity ([1]; acceptor concentration 150 μM): 66.23 mU/mL | Activity ([2]; acceptor concentration 20 μM): 0.8800 mU/mL | Activity ([2]; acceptor concentration 40 μM): 1.667 mU/mL | Activity ([2]; acceptor concentration 80 μM): 2.504 mU/mL | Activity ([2]; acceptor concentration 120 μM): 3.734 mU/mL | Activity ([2]; acceptor concentration 150 μM): 4.828 mU/mL

CC(=O)NC(CNc1ccccn1)[C@H](O)C(O[C@@H]1OC(CO)[C@@H](O[C@@H]2OC(CO)[C@H](F)[C@H](O)C2O)[C@H](O)C1NC(C)=O)C(O)CO (some centres unmarked) [pyridylaminated (PA) 4F-galactosylchitobiose]
reactivity of α2,6-sialyltransferase [3]: considerably decrease | reactivity of α2,3-sialyltransferase [4]: considerably decrease

B1: rat-derived α2,6-N-sialyltransferase (Rattus norvegicus) (protein)
chain: T2 sequence (P13721 1-403)
Km [5, 8]: 217 µM | Vmax [5, 8]: 65.24 nmol/min/mg

B2: rat-derived α2,3-N-sialyltransferase (Rattus norvegicus) (protein)
chain: T1 sequence (Q02734 1-374)
Km [5, 9]: 129 µM | Vmax [5, 9]: 146.9 nmol/min/mg | Km [6]: 188 µM | Vmax [6]: 12.60 nmol/min/mg

B3: GalK: E. coli-derived galactokinase, purified enzyme liquid (protein, UniProt P0A6T3 2-382, looked up)
Galactokinase: SLKEKTQSLFANAFGYPATHTIQAPGRVNLIGEHTDYNDGFVLPCAIDYQTVISCAPRDDRKVRVMAADYENQLDEFSLDAPIVAHENYQWANYVRGVVKHLQLRNNSFGGVDMVISGNVPQGAGLSSSASLEVAVGTVLQQLYHLPLDGAQIALNGQEAENQFVGCNCGIMDQLISALGKKDHALLIDCRSLGTKAVSMPKGVAVVIINSNFKRTLVGSEYNTRREQCETGARFFQQPALRDVTIEEFNAVAHELDPIVAKRVRHILTENARTVEAASALEQGDLKRMGELMAESHASMRDDFEITVPQIDTLVEIVKAVIGDKGGVRMTGGGFGGCIVALIPEELVPAVQQAVAEQYEAKTGIKETFYVCKPSQGAGQC
Enzymatic activity [7]: 23.1 units/mg protein
